Starred links: 1 amine or outer side, 2 acyl side, 3 side chain; linkers in the order of their positions; H or OH if unused. Positions of bridges follow the written chain, without caps; N, C: chain ends. Non-standard residues stand in square brackets, D forms with d. Residues, ends and D or L forms follow the SMILES beside them. *: point of attachment. X68 = COCCOCCOCCOCCOCCOCCC(=O)N(CCCC[C@@H](N[*:1])C(=O)[*:2])C(C)=O; Me3N+(CH2)2O(CH2)2O(CH2)2CO = C[N+](C)(C)CCOCCOCCC(=O)*; NH(CH2CH2O)2CH2CH2NMe3+ = C[N+](C)(C)CCOCCOCCN*; Trp(7-Me) = Cc1cccc2c(C[C@H](N)C(=O)O)c[nH]c12; Hexanoyl(6-NMe3+) = C[N+](C)(C)CCCCCC(=O)*; dLys(Me3) = C[N+](C)(C)CCCC[C@@H](N)C(=O)O; 2Nal = N[C@@H](Cc1ccc2ccccc2c1)C(=O)O; Propanoyl(3,3,3-F3) = O=C(CC(F)(F)F)*; AEF = NCCOc1ccc(C[C@H](N)C(=O)O)cc1; X19 = C[N+](C)(C)C[C@@H](CC(=O)O)N*; X10 = C[N+](C)(C)C[C@H](CC(=O)O)N*; 3Pal = N[C@@H](Cc1cccnc1)C(=O)O; Lys(Me) = CNCCCC[C@H](N)C(=O)O; X7 = COCCOCCOCCOCCOCCOCCC(=O)*; Pen = CC(C)(S)[C@H](N)C(=O)O; Thp = NC1(C(=O)O)CCOCC1; Dap = NC[C@H](N)C(=O)O; Me2NCH2CH2 = CN(C)CC*; Sar = CNCC(=O)O

This series in a line: Exposed Polar Surface Area (EPSA). The note with it: SFC on Chirex 3014 column; sample 1 mM DMSO stock; read-out: EPSA. It counts as physicochemical. The gist of the method: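 Chirex 3014 column, 35 °C, 4 mL/min; CO2/MeOH + 20 mM NH4 formate, 5→60% modifier at 20%/min. UV/MS detection. EPSA (Å^2) from retention time vs 8-standard calibration line; duplicates; 1 mM DMSO stock injected undiluted.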
Consider `COCCOCCOCCOCCOCCOCCC(=O)N(CCCC[C@@H](NC(=O)C1(NC(=O)[C@H](Cc2ccc3ccccc3c2)NC(=O)[C@H](Cc2ccc(OCCN)cc2)NC(=O)[C@H]2NC(=O)[C@H](CCCCNC(C)=O)NC(=O)[C@H](Cc3c[nH]c4c(C)cccc34)NC(=O)[C@H]([C@@H](C)O)NC(=O)[C@H](CC(N)=O)NC(=O)[C@@H](NC(C)=O)C(C)(C)SSC2(C)C)CCOCC1)C(=O)N[C@@H](CC(N)=O)C(=O)N[C@@H](Cc1cccnc1)C(=O)N(C)CC(N)=O)C(C)=O` [compound 123] (Ac-[Pen]NT[Trp(7-Me)]K(Ac)[Pen][AEF][2Nal][Thp][X68]N[3Pal][Sar]-NH2; disulfide 1-6), for which the EPSA was 156 A^2.

Turning to `COCCOCCOCCOCCOCCOCCC(=O)N(C)CCCC[C@@H]1NC(=O)[C@H](Cc2c[nH]c3c(C)cccc23)NC(=O)[C@H]([C@@H](C)O)NC(=O)[C@H](CC(N)=O)NC(=O)[C@@H](NC(C)=O)C(C)(C)SSC(C)(C)[C@@H](C(=O)N[C@@H](Cc2ccc(OCCN)cc2)C(=O)N[C@@H](Cc2ccc3ccccc3c2)C(=O)NC2(C(=O)N[C@@H](CCCCNC(C)=O)C(=O)N[C@@H](CC(N)=O)C(=O)N[C@@H](Cc3cccnc3)C(=O)N(C)CC(N)=O)CCOCC2)NC1=O` [compound 124] (Ac-[Pen]NT[Trp(7-Me)][Lys(Me)](X7)[Pen][AEF][2Nal][Thp]K(Ac)N[3Pal][Sar]-NH2; disulfide 1-6), the EPSA turned out to be 158 A^2.

As for `CC(=O)NCCCC[C@@H]1NC(=O)[C@H](Cc2c[nH]c3c(C)cccc23)NC(=O)[C@H]([C@@H](C)O)NC(=O)[C@H](CC(N)=O)NC(=O)[C@@H](NC(=O)[C@@H](CCC(=O)N[C@@H](CC(=O)O)C[N+](C)(C)C)NC(C)=O)C(C)(C)SSC(C)(C)[C@@H](C(=O)N[C@@H](Cc2ccc(OCCN)cc2)C(=O)N[C@@H](Cc2ccc3ccccc3c2)C(=O)NC2(C(=O)N[C@@H](CCCCNC(C)=O)C(=O)N[C@@H](CC(N)=O)C(=O)N[C@@H](Cc3cccnc3)C(=O)N(C)CC(N)=O)CCOCC2)NC1=O` [compound 126] (Ac-[dE](X10)[Pen]NT[Trp(7-Me)]K(Ac)[Pen][AEF][2Nal][Thp]K(Ac)N[3Pal][Sar]-NH2; disulfide 2-7), the EPSA is 184 A^2.

Take `CC(=O)NCCCC[C@@H]1NC(=O)[C@H](Cc2c[nH]c3c(C)cccc23)NC(=O)[C@H]([C@@H](C)O)NC(=O)[C@H](CC(N)=O)NC(=O)[C@@H](NC(C)=O)C(C)(C)SSC(C)(C)[C@@H](C(=O)N[C@@H](Cc2ccc(OCCN)cc2)C(=O)N[C@@H](Cc2ccc3ccccc3c2)C(=O)NC2(C(=O)N[C@@H](CCC(=O)N[C@H](CC(=O)O)C[N+](C)(C)C)C(=O)N[C@@H](CC(N)=O)C(=O)N[C@@H](Cc3cccnc3)C(=O)N(C)CC(N)=O)CCOCC2)NC1=O` [compound 127] (Ac-[Pen]NT[Trp(7-Me)]K(Ac)[Pen][AEF][2Nal][Thp]E(X19)N[3Pal][Sar]-NH2; disulfide 1-6): the EPSA was found to be 179 A^2.

As for `CC(=O)NCCCC[C@@H]1NC(=O)[C@H](Cc2c[nH]c3c(C)cccc23)NC(=O)[C@H]([C@@H](C)O)NC(=O)[C@H](CC(N)=O)NC(=O)[C@@H](NC(C)=O)C(C)(C)SSC(C)(C)[C@@H](C(=O)N[C@@H](Cc2ccc(OCCN)cc2)C(=O)N[C@@H](Cc2ccc3ccccc3c2)C(=O)NC2(C(=O)N[C@@H](CCC(=O)N[C@@H](CC(=O)O)C[N+](C)(C)C)C(=O)N[C@@H](CC(N)=O)C(=O)N[C@@H](Cc3cccnc3)C(=O)N(C)CC(N)=O)CCOCC2)NC1=O` [compound 128] (Ac-[Pen]NT[Trp(7-Me)]K(Ac)[Pen][AEF][2Nal][Thp]E(X10)N[3Pal][Sar]-NH2; disulfide 1-6), the EPSA worked out at 175 A^2.

Take `COCCOCCOCCOCCOCCOCCOCCOCCNC(=O)CN(C)C(=O)[C@H](Cc1cccnc1)NC(=O)[C@H](CC(N)=O)NC(=O)[C@H](CCC(=O)O)NC(=O)C1(NC(=O)[C@H](Cc2ccc3ccccc3c2)NC(=O)[C@H](Cc2ccc(OCCN)cc2)NC(=O)[C@H]2NC(=O)[C@H](CCCCNC(C)=O)NC(=O)[C@H](Cc3c[nH]c4c(C)cccc34)NC(=O)[C@H]([C@@H](C)O)NC(=O)[C@H](CC(N)=O)NC(=O)[C@@H](NC(C)=O)C(C)(C)SSC2(C)C)CCOCC1` [compound 132]: the EPSA worked out at 163 A^2.

On to `CC(=O)NC[C@H](NC(=O)C1(NC(=O)[C@H](Cc2ccc3ccccc3c2)NC(=O)[C@H](Cc2ccc(OCCN(C)C)cc2)NC(=O)[C@H]2NC(=O)[C@H](CCCCN(C)C(C)=O)NC(=O)[C@H](Cc3c[nH]c4c(C)cccc34)NC(=O)[C@H]([C@@H](C)O)NC(=O)[C@H](CC(=O)N(C)C)NC(=O)[C@@H](NC(=O)CCCCC[N+](C)(C)C)C(C)(C)SSC2(C)C)CCOCC1)C(=O)N[C@@H](CC(N)=O)C(=O)N[C@@H](Cc1cccnc1)C(=O)N(C)CC(=O)N(C)C` [compound 133, 5cpaCO-Pen(3)-N(N(Me)2)-T-7MeW-K(NMeAc)-Pen(3)-AEF(N(Me)2)-2Nal-THP-Dap(Ac)-N-3Pya-Sar-CON(Me)2] ({Hexanoyl(6-NMe3+)}-[Pen]D(NMe2)T[Trp(7-Me)][Lys(Me)](Ac)[Pen]Y(Me2NCH2CH2)[2Nal][Thp][Dap](Ac)N[3Pal][Sar]-NMe2; disulfide 1-6 (inferred)), for which the EPSA is 151 A^2.

Regarding `CC(=O)NCCCC[C@@H]1NC(=O)[C@H](Cc2c[nH]c3c(C)cccc23)NC(=O)[C@H]([C@@H](C)O)NC(=O)[C@H](CC(N)=O)NC(=O)[C@@H](NC(C)=O)C(C)(C)SSC(C)(C)[C@@H](C(=O)N[C@@H](Cc2ccc(OCCN)cc2)C(=O)N[C@@H](Cc2ccc3ccccc3c2)C(=O)NC2(C(=O)N[C@@H](CCC(=O)O)C(=O)N[C@@H](CC(N)=O)C(=O)N[C@@H](Cc3cccnc3)C(=O)N(C)CC(=O)NCCOCCOCC[N+](C)(C)C)CCOCC2)NC1=O` [compound 134] (Ac-[Pen]NT[Trp(7-Me)]K(Ac)[Pen][AEF][2Nal][Thp]EN[3Pal][Sar]-{NH(CH2CH2O)2CH2CH2NMe3+}; disulfide 1-6), the EPSA stood at 159 A^2.

Regarding `Cc1cccc2c(C[C@@H]3NC(=O)[C@H]([C@@H](C)O)NC(=O)[C@H](CC(N)=O)NC(=O)[C@@H](NC(=O)CCOCCOCC[N+](C)(C)C)C(C)(C)SSC(C)(C)[C@@H](C(=O)N[C@@H](Cc4ccc(OCCN)cc4)C(=O)N[C@@H](Cc4ccc5ccccc5c4)C(=O)NC4(C(=O)N[C@@H](CCC(=O)N(C)C)C(=O)N[C@@H](CC(N)=O)C(=O)N[C@@H](Cc5cccnc5)C(=O)N(C)CC(N)=O)CCOCC4)NC(=O)[C@H](CCC(=O)N(C)C)NC3=O)c[nH]c12` [compound 137, cPEG3aCO-Pen(3)-N-T-7MeW-Q(N(Me)2)-Pen(3)-AEF-2Nal-THP-Q(N(Me)2)-N-3Pya-Sar-CONH2] ({Me3N+(CH2)2O(CH2)2O(CH2)2CO}-[Pen]NT[Trp(7-Me)]E(NMe2)[Pen][AEF][2Nal][Thp]E(NMe2)N[3Pal][Sar]-NH2; disulfide 1-6), the EPSA worked out at 160 A^2.

For the molecule `CC(=O)N[C@@H]1C(=O)N[C@@H](CC(N)=O)C(=O)N[C@@H]([C@@H](C)O)C(=O)N[C@@H](Cc2c[nH]c3c(C)cccc23)C(=O)N[C@@H](CCC(=O)N(C)C)C(=O)N[C@H](C(=O)N[C@@H](Cc2ccc(OCCN)cc2)C(=O)N[C@@H](Cc2ccc3ccccc3c2)C(=O)NC2(C(=O)N[C@@H](CCC(=O)N(C)C)C(=O)N[C@@H](CC(N)=O)C(=O)N[C@@H](Cc3cccnc3)C(=O)N(C)CC(N)=O)CCOCC2)C(C)(C)SSC1(C)C` [compound 138] (Ac-[Pen]NT[Trp(7-Me)]E(NMe2)[Pen][AEF][2Nal][Thp]E(NMe2)N[3Pal][Sar]-NH2; disulfide 1-6 (inferred)), the EPSA was 159 A^2.

Consider `CC(=O)NCCCC[C@@H]1NC(=O)[C@H](Cc2c[nH]c3c(C)cccc23)NC(=O)[C@H]([C@@H](C)O)NC(=O)[C@H](CC(N)=O)NC(=O)[C@@H](NC(=O)[C@@H](CCCC[N+](C)(C)C)NC(=O)CC(F)(F)F)C(C)(C)SSC(C)(C)[C@@H](C(=O)N[C@@H](Cc2ccc(OCCN)cc2)C(=O)N[C@@H](Cc2ccc3ccccc3c2)C(=O)NC2(C(=O)N[C@@H](CCCCNC(C)=O)C(=O)N[C@@H](CC(N)=O)C(=O)N[C@@H](Cc3cccnc3)C(=O)N(C)CC(N)=O)CCOCC2)NC1=O` [compound 144] ({Propanoyl(3,3,3-F3)}-[dLys(Me3)][Pen]NT[Trp(7-Me)]K(Ac)[Pen][AEF][2Nal][Thp]K(Ac)N[3Pal][Sar]-NH2; disulfide 2-7), for which the EPSA stood at 161 A^2.

As for `CC(=O)N(C)CCCC[C@@H]1NC(=O)[C@H](Cc2c[nH]c3c(C)cccc23)NC(=O)[C@H]([C@@H](C)O)NC(=O)[C@H](CC(=O)N(C)C)NC(=O)[C@@H](NC(=O)CCOCCOCC[N+](C)(C)C)C(C)(C)SSC(C)(C)[C@@H](C(=O)N[C@@H](Cc2ccc(OCCN)cc2)C(=O)N[C@@H](Cc2ccc3ccccc3c2)C(=O)NC2(C(=O)N[C@@H](CCC(=O)N(C)C)C(=O)N[C@@H](CC(N)=O)C(=O)N[C@@H](Cc3cccnc3)C(=O)N(C)CC(N)=O)CCOCC2)NC1=O` [compound 150, cPEG3aCO-Pen(3)-N(N(Me)2)-T-7MeW-K(NMeAc)-Pen(3)-AEF-2Nal-THP-Q(N(Me)2)-N-3Pya-Sar-CONH2] ({Me3N+(CH2)2O(CH2)2O(CH2)2CO}-[Pen]D(NMe2)T[Trp(7-Me)][Lys(Me)](Ac)[Pen][AEF][2Nal][Thp]E(NMe2)N[3Pal][Sar]-NH2; disulfide 1-6), the EPSA was 159 A^2.

For `Cc1cccc2c(C[C@@H]3NC(=O)[C@H]([C@@H](C)O)NC(=O)[C@H](CC(=O)N(C)C)NC(=O)[C@@H](NC(=O)CCOCCOCC[N+](C)(C)C)C(C)(C)SSC(C)(C)[C@@H](C(=O)N[C@@H](Cc4ccc(OCCN(C)C)cc4)C(=O)N[C@@H](Cc4ccc5ccccc5c4)C(=O)NC4(C(=O)N[C@@H](CCC(=O)N(C)C)C(=O)N[C@@H](CC(N)=O)C(=O)N[C@@H](Cc5cccnc5)C(=O)N(C)CC(=O)N(C)C)CCOCC4)NC(=O)[C@H](CCC(=O)N(C)C)NC3=O)c[nH]c12` [compound 154, cPEG3aCO-Pen(3)-N(N(Me)2)-T-7MeW-Q(N(Me)2)-Pen(3)-AEF(N(Me)2)-2Nal-THP-Q(N(Me)2)-N-3Pya-Sar-CON(Me)2] ({Me3N+(CH2)2O(CH2)2O(CH2)2CO}-[Pen]D(NMe2)T[Trp(7-Me)]E(NMe2)[Pen]Y(Me2NCH2CH2)[2Nal][Thp]E(NMe2)N[3Pal][Sar]-NMe2; disulfide 1-6), the EPSA is 144 A^2.

These data come from patent US20260022143A1, “Cyclic Peptide Inhibitors of IL-23” (JANSSEN PHARMACEUTICA NV, priority 2022, published 2026).
